Consider four compounds from US12433861B2, “Compositions and methods for treating reperfusion injury or hemorrhage after recanalization therapy” (GNT Pharma Co., Ltd., priority 2020, dated 2025).

“Also recorded” adds a separate entry of the source.

The subject of one data set is ischemic stroke patients. The settings on record: cited from earlier work.
A further data set has as its system adult rats. Briefly: Abnormal behavior in adult rats after single dose. The note with it: for % of rats showing abnormal behavior: Abnormal body position lying on side / % of rats showing abnormal behavior: Ataxia / % of rats showing abnormal behavior: Clenched paws / % of rats showing abnormal behavior: Decreased activity / % of rats showing abnormal behavior: Increased salivation / % of rats showing abnormal behavior: Repetitive jaw chewing / Number of rats showing abnormal behavior: Abnormal body position lying on side / Number of rats showing abnormal behavior: Ataxia / Number of rats showing abnormal behavior: Clenched paws / Number of rats showing abnormal behavior: Decreased activity / Number of rats showing abnormal behavior: Increased salivation / Number of rats showing abnormal behavior: Repetitive jaw chewing: 8 rats.

The next data set has as its system healthy volunteers. The settings on record: cited from earlier work.
Data set [1] has as its system acute ischemic stroke patients. The note with it: cited from earlier work.
The mark [2] stands for this setting: ischemic stroke patients, selfotel (n = 281).

In the case of `O=C(O)[C@@H]1C[C@H](CP(=O)(O)O)CCN1` (racemic) [selfotel], the “adverse effects in stroke patients” value in the data set with ischemic stroke patients (1 mg/kg) is “showed hallucinations, paranoia, agitation, confusion, and delirium”. In the data set on ischemic stroke patients (setting [2]), the “% of subjects showing abnormal behavior: Agitation” value is reported as 36%, the “% of subjects showing abnormal behavior: Confusion” value is 16%, the “% of subjects showing abnormal behavior: Hallucination” value is recorded as 21% and the “% of subjects showing abnormal behavior: Stupor” value is listed as 4.3%. In addition, in the data set on ischemic stroke patients (setting [2]), the “Number of subjects showing abnormal behavior: Agitation” value was 101, the “Number of subjects showing abnormal behavior: Confusion” value is given as 46, the “Number of subjects showing abnormal behavior: Hallucination” value is 59 and the “Number of subjects showing abnormal behavior: Stupor” value is 12. For the same compound, in the data set with ischemic stroke patients (setting [2]), the “Subjects showing abnormal behavior: Delirium (yes/no)” value was “yes” and the “Subjects showing abnormal behavior: Paranoia (yes/no)” value is given as “yes”. For the same compound, the psychotic symptoms entry in the data set on ischemic stroke patients (some of 281 ischemic stroke patients) was “revealed psychotic symptoms such as hallucination, paranoia, and delirium”.

For `C[C@]12N[C@H](Cc3ccccc31)c1ccccc12` [MK-801], in the data set with adult rats (1 mg/kg (IP), female), the “% of rats showing abnormal behavior: Abnormal body position lying on side” value came to 25%, the “% of rats showing abnormal behavior: Ataxia” value is 75%, the “% of rats showing abnormal behavior: Clenched paws” value came out at 88% and the “% of rats showing abnormal behavior: Decreased activity” value is reported as 100%. For the same compound, in the data set on adult rats (1 mg/kg (IP), female), the “% of rats showing abnormal behavior: Increased salivation” value was found to be 25%, the “% of rats showing abnormal behavior: Repetitive jaw chewing” value turned out to be 50%, the “Number of rats showing abnormal behavior: Abnormal body position lying on side” value is listed as 2 and the “Number of rats showing abnormal behavior: Ataxia” value is on record as 6. Moreover, in the data set on adult rats (1 mg/kg (IP), female), the “Number of rats showing abnormal behavior: Clenched paws” value turned out to be 7, the “Number of rats showing abnormal behavior: Decreased activity” value is given as 8, the “Number of rats showing abnormal behavior: Increased salivation” value turned out to be 2 and the “Number of rats showing abnormal behavior: Repetitive jaw chewing” value was found to be 4. For the same compound, in the data set with adult rats (10 mg/kg (IP), male), the “% of rats showing abnormal behavior: Abnormal body position lying on side” value came to 13%, the “% of rats showing abnormal behavior: Ataxia” value is given as 38%, the “% of rats showing abnormal behavior: Clenched paws” value was 50% and the “% of rats showing abnormal behavior: Decreased activity” value is 100%. In the data set on adult rats (10 mg/kg (IP), male), the “% of rats showing abnormal behavior: Increased salivation” value was found to be 50%, the “% of rats showing abnormal behavior: Repetitive jaw chewing” value worked out at 38%, the “Number of rats showing abnormal behavior: Abnormal body position lying on side” value is recorded as 1 and the “Number of rats showing abnormal behavior: Ataxia” value was found to be 3. Also, in the data set on adult rats (10 mg/kg (IP), male), the “Number of rats showing abnormal behavior: Clenched paws” value is 5, the “Number of rats showing abnormal behavior: Decreased activity” value amounted to 4, the “Number of rats showing abnormal behavior: Increased salivation” value came out at 5 and the “Number of rats showing abnormal behavior: Repetitive jaw chewing” value worked out at 3. For the same compound, the abnormal behaviors result with adult rats (male and female rats, 1 or 10 mg/kg (IP)) was “produced abnormal behaviors including ataxia and decreased activity”.

For the compound `CCc1cccc(N(C)C(N)=Nc2cccc3ccccc23)c1` [aptiganel], in the data set with healthy volunteers (Phase 1, 94 healthy volunteers), the “Drug-induced side effect: Agitation” value is “yes”, the “Drug-induced side effect: Catatonia” value is “yes”, the “Drug-induced side effect: Hallucination” value is “yes” and the “Drug-induced side effect: Paranoia” value was “yes”. For the same compound, in the data set on healthy volunteers (healthy volunteers (phase 1 study for 94)), the “side effects / psychotic symptoms in healthy humans” value is “caused hallucinations, paranoia, catatonia, euphoria, disinhibition, and psychomotor retardation; also recorded: psychotic symptoms such as hallucinations, paranoia, and catatonia”.

On to “rt-PA: recombinant tissue plasminogen activator, intravenous thrombolytic drug”, for which the “increase of intracranial hemorrhagic complication” value in data set [1] (intravenous administration, acute ischemic stroke) is on record as around 6.4%. In addition, the cerebral arterial recanalization in data set [1] (intravenous, depending upon size and types of the occluded vessel) is given as 4-32%.
